The values that follow come from patent US4985441A, “Anti-tumor agents” (Imperial Chemical Industries plc, priority 1988, dated 1991).

SMILES strings stand for the structures. pIC50: −log10 of the molar value.

The subject of series [1] is human breast, ovarian and liver cancer. As to conditions: clinical; literature references; cited from earlier work.
For the next series, the system named is liver and kidney. As to conditions: clinical; literature references; cited from earlier work.
For another series, the target named is T1, thymidylate synthetase (Mus musculus, UniProt P07607).
T1 construct: obtained in partially purified form from L1210 mouse leukaemia cells; endogenous in cells; host or cells: L1210 mouse leukaemia cells (enzyme partially purified)
Nature of the series: Test (a): in vitro inhibition of thymidylate synthetase (partially purified from L1210 mouse leukaemia cells). The class given is biochemical. As to conditions: enzyme partially purified from L1210 mouse leukaemia cells; read-out: IC50 against thymidylate synthetase [Test (a)]. The source says: (a) An in vitro assay which determines the ability of a test compound to inhibit the enzyme thymidylate synthetase. Thymidylate synthetase may be obtained in partially purified form from L1210 mouse leukaemia cells and utilised using the procedures described by Jackman et al. (Cancer Res., 1986, 46, 2810);

For a further series, the system named is L1210 cell line. Nature of the series: Test (b): inhibition of growth of the leukaemia cell line L1210 in cell culture. The class given is cell-based. As to conditions: Mus musculus, read-out: IC50 against the L1210 cell line [Test (b)]. The source says: Compounds of the CB3717 type are believed to act as anti-tumour agents by inhibiting the enzyme thymidylate synthetase. The anti-tumour activity of CB3717 may be assessed in vitro by determining its inhibitory effect on that enzyme, and in cell cultures by its inhibitory effect on cancer cell lines such as the mouse leukaemia cell lines L1210 and L5178Y TK-/- and the breast cancer cell line MCF-7.
(b) An assay which determines the ability of a test compound to inhibit the growth of the leukaemia cell line L1210 in cell culture. The test is similar to that described in UK Patent Specification No. 2065653B;

T1 sequence (P07607 whole entry): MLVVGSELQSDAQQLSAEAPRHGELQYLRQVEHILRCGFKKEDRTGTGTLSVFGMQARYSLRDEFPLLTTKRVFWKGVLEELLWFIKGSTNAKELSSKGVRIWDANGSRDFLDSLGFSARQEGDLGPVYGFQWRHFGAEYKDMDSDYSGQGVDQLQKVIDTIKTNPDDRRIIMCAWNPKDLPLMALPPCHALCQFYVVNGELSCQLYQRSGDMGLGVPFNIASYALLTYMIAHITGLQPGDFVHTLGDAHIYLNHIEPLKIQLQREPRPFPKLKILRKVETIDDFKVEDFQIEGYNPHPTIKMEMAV

On to `C#CCN(Cc1ccc2nc(N)[nH]c(=O)c2c1)c1ccc(C(=O)N[C@@H](CCC(=O)O)C(=O)O)cc1` [CB3717], for which, in series [1], the “activity against human breast, ovarian and liver cancer” value is “promising activity against human breast, ovarian and liver cancer”. In the series on liver and kidney, the toxicity in humans result was “symptoms of toxicity in humans, particularly in relation to the liver and kidney”.

Consider `C#CCN(Cc1ccc2nc(C)nc(O)c2c1)c1ccc(C(=O)NCCC)cc1` [p-[N-(3,4-dihydro-2-methyl-4-oxoquinazolin-6-ylmethyl)-N-(prop-2-ynyl)amino]-N-propylbenzamide], for which the pIC50 at thymidylate synthetase was 5.74; in the series on L1210 cell line it was 5.15.

By pIC50 is commonly meant the IC50 on a negative log10 scale, so that one unit is a factor of ten.
